± gives the standard deviation of the averaged measurements.
What was measured:
Assay in all cases: relative viability vs DMSO control (72 h) (fraction); higher = more viable cells
SW872 = tested on: SW872
In short: (§1)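 Sarcoma cell lines went into 384-well plates at densities chosen to reach 80–90% confluence. After 24 h, each well received 2.5 µl of serially diluted compound, with source plates running from 10 mM to 0.0002 mM, and the plates were kept 72 h at 37 °C, 5% CO2, alongside 0.1% DMSO vehicle and a 5 µM positive control. Relative viability was derived from ATPLite readings as percent growth and averaged over up to triplicate wells. The data were then rescaled so that 1 stands for full and 0 for none.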

KHOS-240S = tested on: KHOS-240S
In short: as §1

SK-LMS-1 = tested on: SK-LMS-1
In short: as §1

SW1353 = tested on: SW1353
In short: as §1

RD-ES = tested on: RD-ES
In short: as §1

HT1080 = tested on: HT1080
In short: as §1

RD = tested on: RD
In short: as §1

SYO-1 = tested on: SYO-1
In short: as §1

G401 = tested on: G401
In short: as §1

HS729 = tested on: HS729
In short: as §1

SW684 = tested on: SW684
In short: as §1

KHOS-NP = tested on: KHOS-NP
In short: as §1

NC(=O)c1cccc2cn(-c3ccc([C@@H]4CCCNC4)cc3)nc12 [Niraparib]
relative viability (SW872; 0.00017 µM): 1.02 ± 0.069 | relative viability (SW872; 0.00051 µM): 1.04 ± 0.065 | relative viability (SW872; 0.00152 µM): 1.03 ± 0.046 | relative viability (SW872; 0.00457 µM): 1.04 ± 0.069 | relative viability (SW872; 0.01372 µM): 0.997 ± 0.073 | relative viability (SW872; 0.04115 µM): 1.01 ± 0.07 | relative viability (SW872; 0.1235 µM): 1.05 ± 0.036 | relative viability (SW872; 0.3704 µM): 1.07 ± 0.082 | relative viability (SW872; 1.111 µM): 1.06 ± 0.059 | relative viability (SW872; 3.333 µM): 1.07 ± 0.048 | relative viability (SW872; 10 µM): 1.02 ± 0.058 | relative viability (KHOS-240S; 0.00017 µM): 1.06 ± 0.043 | relative viability (KHOS-240S; 0.00051 µM): 1.08 ± 0.069 | relative viability (KHOS-240S; 0.00152 µM): 1.07 ± 0.047 | relative viability (KHOS-240S; 0.00457 µM): 1.07 ± 0.04 | relative viability (KHOS-240S; 0.01372 µM): 1.06 ± 0.055 | relative viability (KHOS-240S; 0.04115 µM): 1.07 ± 0.074 | relative viability (KHOS-240S; 0.1235 µM): 1.06 ± 0.038 | relative viability (KHOS-240S; 0.3704 µM): 1.06 ± 0.03 | relative viability (KHOS-240S; 1.111 µM): 1.03 ± 0.012 | relative viability (KHOS-240S; 3.333 µM): 1.01 ± 0.016 | relative viability (KHOS-240S; 10 µM): 0.877 ± 0.042 | relative viability (SK-LMS-1; 0.00017 µM): 1.08 ± 0.017 | relative viability (SK-LMS-1; 0.00051 µM): 1.12 ± 0.05 | relative viability (SK-LMS-1; 0.00152 µM): 1.1 ± 0.013 | relative viability (SK-LMS-1; 0.00457 µM): 1.12 ± 0.036 | relative viability (SK-LMS-1; 0.01372 µM): 1.12 ± 0.041 | relative viability (SK-LMS-1; 0.04115 µM): 1.13 ± 0.077 | relative viability (SK-LMS-1; 0.1235 µM): 1.12 ± 0.037 | relative viability (SK-LMS-1; 0.3704 µM): 1.1 ± 0.022 | relative viability (SK-LMS-1; 1.111 µM): 1.09 ± 0.059 | relative viability (SK-LMS-1; 3.333 µM): 1.03 ± 0.029 | relative viability (SK-LMS-1; 10 µM): 0.966 ± 0.049 | relative viability (SW1353; 0.00017 µM): 0.976 ± 0.06 | relative viability (SW1353; 0.00051 µM): 0.981 ± 0.035 | relative viability (SW1353; 0.00152 µM): 0.969 ± 0.011 | relative viability (SW1353; 0.00457 µM): 0.958 ± 0.015 | relative viability (SW1353; 0.01372 µM): 0.927 ± 0.04 | relative viability (SW1353; 0.04115 µM): 0.965 ± 0.031 | relative viability (SW1353; 0.1235 µM): 0.956 ± 0.036 | relative viability (SW1353; 0.3704 µM): 0.964 ± 0.035 | relative viability (SW1353; 1.111 µM): 0.933 ± 0.049 | relative viability (SW1353; 3.333 µM): 0.942 ± 0.022 | relative viability (SW1353; 10 µM): 0.904 ± 0.053 | relative viability (RD-ES; 0.00017 µM): 0.997 ± 0.026 | relative viability (RD-ES; 0.00051 µM): 1.01 ± 0.053 | relative viability (RD-ES; 0.00152 µM): 0.9697 ± 0.0067 | relative viability (RD-ES; 0.00457 µM): 0.988 ± 0.055 | relative viability (RD-ES; 0.01372 µM): 0.966 ± 0.05 | relative viability (RD-ES; 0.04115 µM): 0.966 ± 0.037 | relative viability (RD-ES; 0.1235 µM): 0.962 ± 0.011 | relative viability (RD-ES; 0.3704 µM): 0.899 ± 0.048 | relative viability (RD-ES; 1.111 µM): 0.783 ± 0.038 | relative viability (RD-ES; 3.333 µM): 0.504 ± 0.024 | relative viability (RD-ES; 10 µM): 0.0364 ± 0.00095 | relative viability (HT1080; 0.00017 µM): 1.06 ± 0.023 | relative viability (HT1080; 0.00051 µM): 1.05 ± 0.021 | relative viability (HT1080; 0.00152 µM): 1.01 ± 0.023 | relative viability (HT1080; 0.00457 µM): 1.04 ± 0.02 | relative viability (HT1080; 0.01372 µM): 1.01 ± 0.048 | relative viability (HT1080; 0.04115 µM): 1.01 ± 0.027 | relative viability (HT1080; 0.1235 µM): 1.041 ± 0.007 | relative viability (HT1080; 0.3704 µM): 1.02 ± 0.013 | relative viability (HT1080; 1.111 µM): 1.09 ± 0.025 | relative viability (HT1080; 3.333 µM): 1.09 ± 0.025 | relative viability (HT1080; 10 µM): 1.03 ± 0.042 | relative viability (RD; 0.00017 µM): 1.06 ± 0.043 | relative viability (RD; 0.00051 µM): 1.09 ± 0.091 | relative viability (RD; 0.00152 µM): 1.1 ± 0.069 | relative viability (RD; 0.00457 µM): 1.117 ± 0.0076 | relative viability (RD; 0.01372 µM): 1.09 ± 0.071 | relative viability (RD; 0.04115 µM): 1.12 ± 0.085 | relative viability (RD; 0.1235 µM): 1.08 ± 0.055 | relative viability (RD; 0.3704 µM): 1.05 ± 0.042 | relative viability (RD; 1.111 µM): 1.006 ± 0.0063 | relative viability (RD; 3.333 µM): 0.899 ± 0.012 | relative viability (RD; 10 µM): 0.784 ± 0.022 | relative viability (SYO-1; 0.00017 µM): 0.951 ± 0.045 | relative viability (SYO-1; 0.00051 µM): 0.965 ± 0.062 | relative viability (SYO-1; 0.00152 µM): 0.95 ± 0.032 | relative viability (SYO-1; 0.00457 µM): 0.946 ± 0.036 | relative viability (SYO-1; 0.01372 µM): 0.927 ± 0.033 | relative viability (SYO-1; 0.04115 µM): 0.861 ± 0.058 | relative viability (SYO-1; 0.1235 µM): 0.832 ± 0.03 | relative viability (SYO-1; 0.3704 µM): 0.765 ± 0.033 | relative viability (SYO-1; 1.111 µM): 0.664 ± 0.035 | relative viability (SYO-1; 3.333 µM): 0.522 ± 0.023 | relative viability (SYO-1; 10 µM): 0.29 ± 0.0035 | relative viability (G401; 0.00017 µM): 0.962 ± 0.048 | relative viability (G401; 0.00051 µM): 0.988 ± 0.049 | relative viability (G401; 0.00152 µM): 1.01 ± 0.058 | relative viability (G401; 0.00457 µM): 0.9908 ± 0.0078 | relative viability (G401; 0.01372 µM): 0.993 ± 0.051 | relative viability (G401; 0.04115 µM): 1.03 ± 0.042 | relative viability (G401; 0.1235 µM): 0.967 ± 0.031 | relative viability (G401; 0.3704 µM): 0.97 ± 0.048 | relative viability (G401; 1.111 µM): 0.93 ± 0.049 | relative viability (G401; 3.333 µM): 0.929 ± 0.011 | relative viability (G401; 10 µM): 0.852 ± 0.052 | relative viability (HS729; 0.00017 µM): 0.876 ± 0.051 | relative viability (HS729; 0.00051 µM): 0.894 ± 0.043 | relative viability (HS729; 0.00152 µM): 0.893 ± 0.016 | relative viability (HS729; 0.00457 µM): 0.89 ± 0.027 | relative viability (HS729; 0.01372 µM): 0.886 ± 0.01 | relative viability (HS729; 0.04115 µM): 0.869 ± 0.054 | relative viability (HS729; 0.1235 µM): 0.917 ± 0.082 | relative viability (HS729; 0.3704 µM): 0.868 ± 0.031 | relative viability (HS729; 1.111 µM): 0.884 ± 0.011 | relative viability (HS729; 3.333 µM): 0.877 ± 0.024 | relative viability (HS729; 10 µM): 0.801 ± 0.02 | relative viability (SW684; 0.00017 µM): 1.14 ± 0.068 | relative viability (SW684; 0.00051 µM): 1.15 ± 0.028 | relative viability (SW684; 0.00152 µM): 1.17 ± 0.028 | relative viability (SW684; 0.00457 µM): 1.13 ± 0.062 | relative viability (SW684; 0.01372 µM): 1.09 ± 0.024 | relative viability (SW684; 0.04115 µM): 1.13 ± 0.033 | relative viability (SW684; 0.1235 µM): 1.14 ± 0.04 | relative viability (SW684; 0.3704 µM): 1.1 ± 0.11 | relative viability (SW684; 1.111 µM): 1.13 ± 0.025 | relative viability (SW684; 3.333 µM): 1.17 ± 0.05 | relative viability (SW684; 10 µM): 1.09 ± 0.052 | relative viability (KHOS-NP; 0.00017 µM): 1.05 ± 0.03 | relative viability (KHOS-NP; 0.00051 µM): 1.04 ± 0.034 | relative viability (KHOS-NP; 0.00152 µM): 1.04 ± 0.031 | relative viability (KHOS-NP; 0.00457 µM): 1.06 ± 0.027 | relative viability (KHOS-NP; 0.01372 µM): 1.045 ± 0.0046 | relative viability (KHOS-NP; 0.04115 µM): 1.04 ± 0.024 | relative viability (KHOS-NP; 0.1235 µM): 1.06 ± 0.025 | relative viability (KHOS-NP; 0.3704 µM): 1.08 ± 0.039 | relative viability (KHOS-NP; 1.111 µM): 1.05 ± 0.056 | relative viability (KHOS-NP; 3.333 µM): 1.079 ± 0.0049 | relative viability (KHOS-NP; 10 µM): 1.04 ± 0.028

Reference: the supplement of paper PMC10883282
